Source: patent publication US20240226103A1, “SOLID DISPERSION OF A HER2 INHIBITOR” (Boehringer Ingelheim International GmbH, priority 2022, published 2024)
≈ marks a conversion by molar mass, not a printed value. Like-named read-outs stand apart in the source and are kept apart here.

Assays:
Assay type in all cases: physicochemical
[1] = Equilibrium solubility in aqueous media at different pH and in biorelevant media (UPLC-UV-MS); conditions: for Equilibrium solubility Conc.: 24 h; for solubility thermodynamic at 24 h: thermodynamic from solid, read-out: Equilibrium solubility Conc.
Method: Discard the first ˜3.5 mL then collect 3 aliquots (˜0.5 mL) to be analyzed. • Quantification of the 3 aliquots by UPLC-UV-MS with the appropriate calibration curve.
• Instrument: Waters Acquity H-Class with PDA and QDa detectors • Column: Waters Acquity BEH C18, 1.7 μm, 2.1×50 mm • Flow rate: 0.65 mL/min • UV detection: 254 nm or 410 nm • Column temperature: 40° C.±2° C. • Sample temperature: 23° C.±2° C. • Injection volumes: 0.4 μL (for concentration between 1-500 μg/mL) and 9 μL (for concentration between 0.050-1 μg/mL) • Mobile phase: gradient with solutions A and B prepared as follows
• Ionisation mode: ESI+/ESI− • Source temperature: 600° C. • Capillary voltage: 0.8 kV • Cone voltage: +20V/−20V
Two standard calibration curves (chromatographic UV peak area vs. concentration) are established in DMSO at 254 nm or 410 nm for each solid form and for the solid dispersion, one between 0.025 or 0.050 μg/mL and 1 μg/mL (injection volume=9 μL) and another between 1 μg/mL and 500 μg/mL (injection volume=0.4 μL). The calibration curves are linear in the whole investigated concentration range.

[2] = pH-dependent solubility of compound (1) in aqueous media
Excerpt: Consequently, the in vivo absorption of compound (1) is affected by gastric pH. […] Such a decrease may occur to different extents in different patients due to inter-patient stomach pH variability.

[3] = Organic solubility screening in DCM:methanol solvent blends (visual observation)
Method: Solubility is determined by visual observation.

[4] = Acetate Buffer pH 4, room temperature
[5] = Phosphate Buffer pH 7.4, room temperature

Structure (SMILES)	Equilibrium solubility Conc. [1, 4] [µg/mL]	solubility thermodynamic at 24 h ([1]; FaSSIF, 37 °C, pH 6.5, fassif, FaSSIF pH 6.5, 37° C.) [µg/mL]	solubility thermodynamic at 24 h ([1]; FeSSIF, 37 °C, pH 5, fessif, FeSSIF pH 5.0, 37° C.) [µg/mL]	solubility thermodynamic at 24 h ([1]; HCl 0.01N, pH 2, simulated gastric fluid, HCl 0.01N pH 2, room temperature) [µg/mL]	Equilibrium solubility Conc. [1, 5] [µg/mL]	solubility thermodynamic at 24 h ([1]; acetate buffer, pH 5, aqueous buffer, Acetate Buffer pH 5, room temperature) [µg/mL]	solubility thermodynamic at 24 h ([1]; phosphate buffer, pH 6.8, aqueous buffer, Phosphate Buffer pH 6.8, room temperature) [µg/mL]	Equilibrium solubility Conc. ([1]; Acetate Buffer pH 5, room temperature) [µg/mL]	Equilibrium solubility Conc. ([1]; FaSSIF pH 6.5, 37° C.) [µg/mL]	Equilibrium solubility Conc. ([1]; FeSSIF pH 5.0, 37° C.) [µg/mL]	Equilibrium solubility Conc. ([1]; HCl 0.01N pH 2, room temperature) [µg/mL]	Equilibrium solubility Conc. ([1]; Phosphate Buffer pH 6.8, room temperature) [µg/mL]	decrease in solubility between pH 1.2 and pH 6.8 [2]	Solubility ([3]; DCM:methanol 70:30) [wt %]	Solubility ([3]; DCM:methanol 80:20) [wt %]	Solubility ([3]; DCM:methanol 90:10) [wt %]
C=CC(=O)NC1CCN(c2ncc3ncnc(Nc4ccc(Oc5ccc6c(c5)ncn6C)c(C)c4)c3n2)CC1 [compound (1) Form III, N-{1-[8-({3-methyl-4-[(1-methyl-1H-1,3-benzodiazol-5-yl)oxy]phenyl}amino)-[1,3]diazino[5,4-d]pyrimidin-2-yl]piperidin-4-yl}prop-2-enamide]	6.6	0.803 (≈ 1.5 µM)	49 (≈ 91.5 µM)	1320 (≈ 2470 µM)	0.056	0.126 (≈ 0.235 µM)	0.025 (≈ 0.0467 µM)	–	–	–	–	–	–	–	–	–
C=CC(=O)NC1CCN(c2ncc3ncnc(Nc4ccc(Oc5ccc6c(c5)ncn6C)c(C)c4)c3n2)CC1 [compound (1) Form IV, N-{1-[8-({3-methyl-4-[(1-methyl-1H-1,3-benzodiazol-5-yl)oxy]phenyl}amino)-[1,3]diazino[5,4-d]pyrimidin-2-yl]piperidin-4-yl}prop-2-enamide]	3	–	–	–	0.018	–	–	0.075	0.726	44	761	0.027	–	–	–	–
C=CC(=O)NC1CCN(c2ncc3ncnc(Nc4ccc(Oc5ccc6c(c5)ncn6C)c(C)c4)c3n2)CC1 [compound (1), N-{1-[8-({3-methyl-4-[(1-methyl-1H-1,3-benzodiazol-5-yl)oxy]phenyl}amino)-[1,3]diazino[5,4-d]pyrimidin-2-yl]piperidin-4-yl}prop-2-enamide]	–	–	–	–	–	–	–	–	–	–	–	–	about 10^5 fold	>16.8	>18.7	>17.1
